Data taken from the supplement of paper PMC10627819.

How the values were obtained:
Test in all cases: fitness (endpoint OD595 vs no drug) (fraction); higher = more growth
[1] = tested on: S. aureus Newman; conditions: one replicate, main component drawn
Procedure, shortened: (§1)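 Bacterial growth was followed in 384-well plates seeded at OD595 0.01, with 30 µl per well, or 55 µl for S. pneumoniae, in TSB, LB Lennox or CY at 37 °C. OD595 was read every 30 min for 14 h, and each reading had the first reading subtracted as background. Fitness is the background-corrected optical density at entry into stationary phase divided by the robust mean of the no-drug control wells. This ratio is capped at 1.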

[2] = tested on: B. subtilis 168
Procedure, shortened: as §1

[3] = tested on: S. pneumoniae D39V
Procedure, shortened: as §1

O=C(O)[C@H]1/C(=C/CO)O[C@@H]2CC(=O)N21 [Clavulanic acid] + CCCCCCCCCC(=O)N[C@@H]1[C@H]([C@@H]([C@H](O[C@H]1OC2=C3C=C4C=C2OC5=C(C=C(C=C5)[C@H]([C@H]6C(=O)N[C@@H](C7=C(C(=CC(=C7)O)OC8[C@H]([C@H]([C@@H]([C@H](O8)CO)O)O)O)C9=C(C=CC(=C9)[C@H](C(=O)N6)NC(=O)[C@@H]4NC(=O)[C@@H]1C2=CC(=CC(=C2)OC2=C(C=CC(=C2)[C@H](C(=O)N[C@H](CC2=CC(=C(O3)C=C2)Cl)C(=O)N1)N)O)O)O)C(=O)O)O[C@H]1[C@@H]([C@H]([C@@H]([C@H](O1)CO)O)O)NC(=O)C)Cl)CO)O)O [Teicoplanin]
fitness, [1]
Conditions | first compound 0.03125 µg/mL | first compound 0.0625 µg/mL | first compound 0.125 µg/mL
partner 0.1562 µg/mL | 0.992 | 0.966 | 0.916
partner 0.3125 µg/mL | 0.924 | ≥ 1 | 0.894
partner 0.625 µg/mL | ≥ 1 | ≥ 1 | 0.967

O=C(O)[C@H]1/C(=C/CO)O[C@@H]2CC(=O)N21 [Clavulanic acid] + CCC[C@@H]1C[C@@H](C(=O)N[C@@H]([C@H]2O[C@H](SC)[C@H](O)[C@@H](O)[C@H]2O)[C@@H](C)O)N(C)C1 [Lincomycin]
fitness
Conditions | partner 0.1 µg/mL | partner 0.2 µg/mL | partner 0.215 µg/mL | partner 0.4 µg/mL | partner 0.43 µg/mL | partner 0.8 µg/mL | partner 0.86 µg/mL
[2], first compound 1.5 µg/mL | 0.91 | 0.868 | – | 0.892 | – | – | –
[2], first compound 3 µg/mL | 0.835 | 0.837 | – | 0.838 | – | – | –
[2], first compound 6 µg/mL | 0.822 | 0.686 | – | 0.704 | – | – | –
[3], first compound 0.5 µg/mL | – | 0.571 | 0.828 | 0.326 | 0.726 | 0.0312 | 0.39
[3], first compound 1 µg/mL | – | 0.591 | 0.809 | 0.354 | 0.687 | 0.186 | 0.332
[3], first compound 2 µg/mL | – | 0.406 | 0.726 | 0.258 | 0.606 | 0.045 | 0.21

fitness, [2], one replicate
Conditions | first compound 1.5 µg/mL | first compound 3 µg/mL | first compound 6 µg/mL
partner 0.8 µg/mL | 0.832 | 0.761 | 0.729
partner 1.6 µg/mL | 0.913 | 0.802 | 0.708

O=C(O)[C@H]1/C(=C/CO)O[C@@H]2CC(=O)N21 [Clavulanic acid] + CC[C@H]1OC(=O)[C@H](C)[C@@H](O[C@H]2C[C@@](C)(OC)[C@@H](O)[C@H](C)O2)[C@H](C)[C@@H](O[C@@H]2O[C@H](C)C[C@H](N(C)C)[C@H]2O)[C@](C)(OC)C[C@@H](C)C(=O)[C@H](C)[C@@H](O)[C@]1(C)O [Clarithromycin]
fitness, [3], one replicate
Conditions | first compound 0.5 µg/mL | first compound 1 µg/mL | first compound 2 µg/mL
partner 0.007812 µg/mL | 0.855 | 0.828 | 0.801
partner 0.01562 µg/mL | 0.829 | 0.792 | 0.769
partner 0.03125 µg/mL | 0.597 | 0.574 | 0.509

fitness, [3]
Conditions | partner 0.0625 µg/mL | partner 0.07 µg/mL | partner 0.125 µg/mL | partner 0.14 µg/mL | partner 0.25 µg/mL | partner 0.28 µg/mL
first compound 0.5 µg/mL | 0.486 | 0.103 | 0.232 | 0.0628 | 0.0756 | 0.0401
first compound 1 µg/mL | 0.541 | 0.088 | 0.361 | 0.0781 | 0.209 | 0.0556
first compound 2 µg/mL | 0.325 | 0.0584 | 0.191 | 0.062 | 0.0711 | 0.0369

O=C(O)[C@H]1/C(=C/CO)O[C@@H]2CC(=O)N21 [Clavulanic acid] + CN(C)C(=O)C(CCN1CCC(O)(c2ccc(Cl)cc2)CC1)(c1ccccc1)c1ccccc1 [Loperamide]
fitness
Conditions | first compound 0.5 µg/mL | first compound 1 µg/mL | first compound 1.5 µg/mL | first compound 2 µg/mL | first compound 3 µg/mL | first compound 6 µg/mL
[2], partner 25 µg/mL | – | – | 0.848 | – | 0.742 | 0.614
[3], partner 17.14 µg/mL | 0.954 | 0.95 | – | 0.836 | – | –
[3], partner 20 µg/mL | ≥ 1 | ≥ 1 | – | 0.89 | – | –
[3], partner 34.28 µg/mL | 0.931 | 0.913 | – | 0.75 | – | –
[3], partner 40 µg/mL | ≥ 1 | ≥ 1 | – | 0.926 | – | –
[3], partner 80 µg/mL | 0.0391 | 0.185 | – | 0.0465 | – | –

[3], partner 68.57 µg/mL, one replicate
Conditions | fitness
first compound 0.5 µg/mL | 0.952
first compound 1 µg/mL | 0.944
first compound 2 µg/mL | 0.849

O=C(O)[C@H]1/C(=C/CO)O[C@@H]2CC(=O)N21 [Clavulanic acid] + CN(C)[C@@H]1C(O)=C(C(N)=O)C(=O)[C@@]2(O)C(O)=C3C(=O)c4c(O)ccc(Cl)c4[C@@](C)(O)[C@H]3C[C@@H]12 [Chlortetracycline]
fitness
Conditions | partner 0.012 µg/mL | partner 0.024 µg/mL | partner 0.0475 µg/mL | partner 0.048 µg/mL | partner 0.095 µg/mL | partner 0.19 µg/mL | partner 0.375 µg/mL | partner 0.75 µg/mL | partner 1.5 µg/mL
[2], first compound 1.5 µg/mL | – | – | 0.873 | – | 0.754 | 0.58 | – | – | –
[2], first compound 3 µg/mL | – | – | 0.838 | – | 0.708 | 0.512 | – | – | –
[2], first compound 6 µg/mL | – | – | 0.745 | – | 0.582 | 0.422 | – | – | –
[3], first compound 0.5 µg/mL | 0.906 | 0.699 | – | 0.306 | – | – | 0.0436 | 0.0585 | 0.0458
[3], first compound 1 µg/mL | 0.821 | 0.686 | – | 0.366 | – | – | 0.0323 | 0.0545 | 0.0428
[3], first compound 2 µg/mL | 0.618 | 0.462 | – | 0.246 | – | – | 0.0402 | 0.0396 | 0.0545
